Source: patent US20260262643A1, “HERBICIDAL BENZOXAZINES” (FMC CORPORATION, priority 2022, published 2026)

Assays:
ryegrass, Italian [1] = assay: Test C preemergence; assay type: in vivo, Lolium multiflorum
Outline: (§1)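 Pre: seeds in loam/sand, directed soil spray. Post: 1–2 leaf plants, 2–10 cm. Cmpd in non-phytotoxic solvent + surfactant. Greenhouse 10 d; visual rating vs untreated, 0 = none, 100 = complete control.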

pigweed, palmer [2] = assay: Test C preemergence; assay type: in vivo, Amaranthus palmeri
Outline: as §1

foxtail, giant [3] = assay: Test C preemergence; assay type: in vivo, Setaria faberi
Outline: as §1

corn [4] = assay: Test C postemergence; assay type: in vivo, Zea mays; conditions: 10 days, 0 to 100 scale (0 no effect, 100 complete control)
Outline: as §1

kochia [5] = assay: Test C preemergence; assay type: in vivo, Bassia scoparia
Outline: as §1

corn [6] = assay: Test C preemergence; assay type: in vivo, Zea mays
Outline: as §1

oat, wild [7] = assay: Test C postemergence; assay type: in vivo, Avena fatua; conditions: 10 days, 0 to 100 scale (0 no effect, 100 complete control)
Outline: as §1

kochia [8] = assay: Test C postemergence; assay type: in vivo, Bassia scoparia; conditions: 10 days, 0 to 100 scale (0 no effect, 100 complete control)
Outline: as §1

horseweed = assay: Test C postemergence; assay type: in vivo, Erigeron canadensis; conditions: 10 days, 0 to 100 scale (0 no effect, 100 complete control)
Outline: as §1

ducksalad = assay: Test D flooded paddy test; assay type: in vivo, Heteranthera limosa; conditions: 250 g ai/ha, applied to paddy water, visual rating after 13 to 14 days, scale 0 to 100 (0 no effect, 100 complete control)
Outline: (§2)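 Compounds go straight into paddy water over 2-leaf plants in pots flooded to 3 cm. Greenhouse holding lasts 13 to 14 days. Injury is scored by eye against controls from 0 (none) to 100 (complete control).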

pigweed, palmer [9] = assay: Test C postemergence; assay type: in vivo, Amaranthus palmeri; conditions: 10 days, 0 to 100 scale (0 no effect, 100 complete control)
Outline: as §1

galium = assay: Test C postemergence; assay type: in vivo, Galium aparine; conditions: 10 days, 0 to 100 scale (0 no effect, 100 complete control)
Outline: as §1

wheat [10] = assay: Test C preemergence; assay type: in vivo, Triticum aestivum
Outline: as §1

ragweed [11] = assay: Test C preemergence; assay type: in vivo, Ambrosia artemisiifolia
Outline: as §1

barnyardgrass [12] = assay: Test C preemergence; assay type: in vivo, Echinochloa crusgalli
Outline: as §1

barnyardgrass [13] = assay: Test D flooded paddy test; assay type: in vivo, Echinochloa crus-galli; conditions: 250 g ai/ha, applied to paddy water, visual rating after 13 to 14 days, scale 0 to 100 (0 no effect, 100 complete control)
Outline: as §2

soybean [14] = assay: Test C postemergence; assay type: in vivo, Glycine max; conditions: 10 days, 0 to 100 scale (0 no effect, 100 complete control)
Outline: as §1

rice = assay: Test D flooded paddy test; assay type: in vivo, Oryza sativa; conditions: 250 g ai/ha, applied to paddy water, visual rating after 13 to 14 days, scale 0 to 100 (0 no effect, 100 complete control)
Outline: as §2

ragweed [15] = assay: Test C postemergence; assay type: in vivo, Ambrosia artemisiifolia; conditions: 10 days, 0 to 100 scale (0 no effect, 100 complete control)
Outline: as §1

oat, wild [16] = assay: Test C preemergence; assay type: in vivo, Avena fatua
Outline: as §1

soybean [17] = assay: Test C preemergence; assay type: in vivo, Glycine max
Outline: as §1

wheat [18] = assay: Test C postemergence; assay type: in vivo, Triticum aestivum; conditions: 10 days, 0 to 100 scale (0 no effect, 100 complete control)
Outline: as §1

sedge, umbrella = assay: Test D flooded paddy test; assay type: in vivo, Cyperus difformis; conditions: 250 g ai/ha, applied to paddy water, visual rating after 13 to 14 days, scale 0 to 100 (0 no effect, 100 complete control)
Outline: as §2

ryegrass, Italian [19] = assay: Test C postemergence; assay type: in vivo, Lolium multiflorum; conditions: 10 days, 0 to 100 scale (0 no effect, 100 complete control)
Outline: as §1

foxtail, giant [20] = assay: Test C postemergence; assay type: in vivo, Setaria faberi; conditions: 10 days, 0 to 100 scale (0 no effect, 100 complete control)
Outline: as §1

barnyardgrass [21] = assay: Test C postemergence; assay type: in vivo, Echinochloa crusgalli; conditions: 10 days, 0 to 100 scale (0 no effect, 100 complete control)
Outline: as §1

blackgrass [22] = assay: Test C postemergence; assay type: in vivo, Alopecurus myosuroides; conditions: 10 days, 0 to 100 scale (0 no effect, 100 complete control)
Outline: as §1

blackgrass [23] = assay: Test C preemergence; assay type: in vivo, Alopecurus myosuroides
Outline: as §1

[24] = 500 g ai/ha, preemergence, 0 to 100 scale (0 no effect, 100 complete control)
[25] = Preemergence, 125 g ai/ha, 0 to 100 scale, 0 no effect, 100 complete control

SMILES: CCc1ncn(-c2cc(C(=O)N3CC(C(F)(F)F)Oc4c(C)cccc43)ccn2)n1 (stereo not shown) [Compound 318]
- Ryegrass, Italian plant response rating (ryegrass, Italian [1]; [24]): 100
- Plant response rating, Ryegrass, Italian (ryegrass, Italian [1]; [25]): 90
- Pigweed, Palmer plant response rating (pigweed, palmer [2]; [24]): 90
- Plant response rating, Pigweed, Palmer (pigweed, palmer [2]; [25]): 50
- Foxtail, Giant plant response rating (foxtail, giant [3]; [24]): 100
- Plant response rating, Foxtail, Giant (foxtail, giant [3]; [25]): 100
- Plant response rating, Corn (corn [4]; 500 g ai/ha, postemergence): 80
- Plant response rating, Corn (corn [4]; Postemergence, 125 g ai/ha): 70
- Kochia plant response rating (kochia [5]; [24]): 90
- Plant response rating, Kochia (kochia [5]; [25]): 70
- Corn plant response rating (corn [6]; [24]): 80
- Plant response rating, Corn (corn [6]; [25]): 30
- Plant response rating, Oat, Wild (oat, wild [7]; 500 g ai/ha, postemergence): 80
- Plant response rating, Oat, Wild (oat, wild [7]; Postemergence, 125 g ai/ha): 40
- Plant response rating, Kochia (kochia [8]; 500 g ai/ha, postemergence): 80
- Plant response rating, Kochia (kochia [8]; Postemergence, 125 g ai/ha): 50
- Plant response rating, Horseweed (horseweed; 500 g ai/ha, postemergence): 20
- Plant response rating, Horseweed (horseweed; Postemergence, 125 g ai/ha): 0
- Plant response rating, Ducksalad (Flood) (ducksalad): 10
- Plant response rating, Pigweed, Palmer (pigweed, palmer [9]; 500 g ai/ha, postemergence): 60
- Plant response rating, Pigweed, Palmer (pigweed, palmer [9]; Postemergence, 125 g ai/ha): 20
- Plant response rating, Galium (galium; 500 g ai/ha, postemergence): 100
- Plant response rating, Galium (galium; Postemergence, 125 g ai/ha): 100
- Wheat plant response rating (wheat [10]; [24]): 90
- Plant response rating, Wheat (wheat [10]; [25]): 30
- Ragweed plant response rating (ragweed [11]; [24]): 40
- Plant response rating, Ragweed (ragweed [11]; [25]): 0
- Barnyardgrass plant response rating (barnyardgrass [12]; [24]): 100
- Plant response rating, Barnyardgrass (barnyardgrass [12]; [25]): 90
- Plant response rating, Barnyardgrass (Flood) (barnyardgrass [13]): 45
- Plant response rating, Soybean (soybean [14]; 500 g ai/ha, postemergence): 100
- Plant response rating, Soybean (soybean [14]; Postemergence, 125 g ai/ha): 100
- Plant response rating, Rice (Flood) (rice): 15
- Plant response rating, Ragweed (ragweed [15]; 500 g ai/ha, postemergence): 30
- Plant response rating, Ragweed (ragweed [15]; Postemergence, 125 g ai/ha): 0
- Oat, Wild plant response rating (oat, wild [16]; [24]): 90
- Plant response rating, Oat, Wild (oat, wild [16]; [25]): 50
- Soybean plant response rating (soybean [17]; [24]): 100
- Plant response rating, Soybean (soybean [17]; [25]): 30
- Plant response rating, Wheat (wheat [18]; 500 g ai/ha, postemergence): 50
- Plant response rating, Wheat (wheat [18]; Postemergence, 125 g ai/ha): 40
- Plant response rating, Sedge, Umbrella (Flood) (sedge, umbrella): 45
- Plant response rating, Ryegrass, Italian (ryegrass, Italian [19]; 500 g ai/ha, postemergence): 100
- Plant response rating, Ryegrass, Italian (ryegrass, Italian [19]; Postemergence, 125 g ai/ha): 60
- Plant response rating, Foxtail, Giant (foxtail, giant [20]; 500 g ai/ha, postemergence): 90
- Plant response rating, Foxtail, Giant (foxtail, giant [20]; Postemergence, 125 g ai/ha): 90
- Plant response rating, Barnyardgrass (barnyardgrass [21]; 500 g ai/ha, postemergence): 70
- Plant response rating, Barnyardgrass (barnyardgrass [21]; Postemergence, 125 g ai/ha): 50
- Plant response rating, Blackgrass (blackgrass [22]; 500 g ai/ha, postemergence): 90
- Plant response rating, Blackgrass (blackgrass [22]; Postemergence, 125 g ai/ha): 60
- Blackgrass plant response rating (blackgrass [23]; [24]): 90
- Plant response rating, Blackgrass (blackgrass [23]; [25]): 80
